# From paper PMC9938908, “Unraveling topoisomerase IA gate dynamics in presence of PPEF and its preclinical evaluation against multidrug-resistant pathogens” (Communications Biology, 2023)
# What was measured:
# Format in all cases: biochemical
# [1] = biological target: T1, E. coli topoisomerase III (EcTopoIII) (Escherichia coli, UniProt P14294); assay: DNA relaxation assay with pHOT-1 plasmid, agarose gel
# T1 construct: gene topB; N-terminal His-tag, pET28a(+), 1962 bp, 73 kDa
# [2] = biological target: T2, E. coli topoisomerase IA (EcTopoIA) (Escherichia coli, UniProt P06612); assay: as above
# T2 construct: gene topA; expressed in pET28a(+), purified
# T2 sequence (P06612 whole entry): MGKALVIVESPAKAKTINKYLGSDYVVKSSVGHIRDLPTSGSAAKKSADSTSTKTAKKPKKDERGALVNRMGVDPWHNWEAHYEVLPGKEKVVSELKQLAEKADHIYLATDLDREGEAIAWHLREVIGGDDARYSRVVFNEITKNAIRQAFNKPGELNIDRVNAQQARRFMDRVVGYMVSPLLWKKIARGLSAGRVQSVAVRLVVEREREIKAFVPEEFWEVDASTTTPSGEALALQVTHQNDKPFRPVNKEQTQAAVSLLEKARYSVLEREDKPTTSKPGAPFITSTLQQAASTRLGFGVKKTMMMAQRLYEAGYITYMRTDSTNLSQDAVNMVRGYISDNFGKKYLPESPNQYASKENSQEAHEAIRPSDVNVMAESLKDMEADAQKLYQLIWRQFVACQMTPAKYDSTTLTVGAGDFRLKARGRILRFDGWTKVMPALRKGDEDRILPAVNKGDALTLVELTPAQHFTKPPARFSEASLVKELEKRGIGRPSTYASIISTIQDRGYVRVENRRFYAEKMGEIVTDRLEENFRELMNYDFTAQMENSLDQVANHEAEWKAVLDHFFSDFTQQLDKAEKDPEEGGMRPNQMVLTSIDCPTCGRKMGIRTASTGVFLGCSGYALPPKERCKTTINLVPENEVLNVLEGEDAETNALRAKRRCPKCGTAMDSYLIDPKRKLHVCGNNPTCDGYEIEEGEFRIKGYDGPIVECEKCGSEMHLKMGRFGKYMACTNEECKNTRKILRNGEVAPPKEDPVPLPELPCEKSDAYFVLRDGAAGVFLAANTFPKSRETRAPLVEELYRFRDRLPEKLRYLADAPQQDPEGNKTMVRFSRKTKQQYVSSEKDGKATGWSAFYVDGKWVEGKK
# [3] = biological target: T3, A. baumannii topoisomerase IA (AbTopoIA) (Acinetobacter baumannii, UniProt A0ABX6CBM5); assay: as above
# T3 construct: gene topA; N-terminal His-tag, pET28a(+), 2637 bp, 98 kDa
# T3 sequence (A0ABX6CBM5 1-878): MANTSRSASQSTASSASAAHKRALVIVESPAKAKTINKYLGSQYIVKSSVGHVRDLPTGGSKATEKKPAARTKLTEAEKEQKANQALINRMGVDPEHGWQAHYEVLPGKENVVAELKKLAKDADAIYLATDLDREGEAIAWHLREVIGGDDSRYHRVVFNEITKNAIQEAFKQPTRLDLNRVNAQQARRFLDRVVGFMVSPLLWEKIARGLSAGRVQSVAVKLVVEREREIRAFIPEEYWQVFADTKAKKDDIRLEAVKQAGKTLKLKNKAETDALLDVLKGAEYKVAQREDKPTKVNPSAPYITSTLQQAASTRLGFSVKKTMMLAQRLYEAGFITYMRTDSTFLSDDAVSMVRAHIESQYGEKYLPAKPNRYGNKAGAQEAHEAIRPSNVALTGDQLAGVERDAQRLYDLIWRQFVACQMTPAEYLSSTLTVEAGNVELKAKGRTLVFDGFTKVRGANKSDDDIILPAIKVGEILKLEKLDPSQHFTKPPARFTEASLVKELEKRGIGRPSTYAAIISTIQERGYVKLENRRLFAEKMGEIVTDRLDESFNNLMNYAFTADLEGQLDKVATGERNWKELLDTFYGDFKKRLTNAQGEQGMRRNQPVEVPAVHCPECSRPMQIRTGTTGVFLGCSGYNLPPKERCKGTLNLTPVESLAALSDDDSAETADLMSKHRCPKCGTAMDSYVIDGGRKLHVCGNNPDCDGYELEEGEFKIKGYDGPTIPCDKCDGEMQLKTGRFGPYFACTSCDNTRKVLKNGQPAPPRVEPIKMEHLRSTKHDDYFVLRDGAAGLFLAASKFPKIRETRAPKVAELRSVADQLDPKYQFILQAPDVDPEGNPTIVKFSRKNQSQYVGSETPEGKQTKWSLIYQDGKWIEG
# [4] = biological target: T4, S. aureus topoisomerase IA (SaTopoIA) (Staphylococcus aureus, UniProt Q5HGI2); assay: DNA relaxation assay with pHOT-1 plasmid; also ssDNA religation and plasmid cleavage assays
# T4 construct: gene topA; N-terminal His-tag, pET28a(+), 2070 bp, 79 kDa
# T4 sequence (Q5HGI2 1-689): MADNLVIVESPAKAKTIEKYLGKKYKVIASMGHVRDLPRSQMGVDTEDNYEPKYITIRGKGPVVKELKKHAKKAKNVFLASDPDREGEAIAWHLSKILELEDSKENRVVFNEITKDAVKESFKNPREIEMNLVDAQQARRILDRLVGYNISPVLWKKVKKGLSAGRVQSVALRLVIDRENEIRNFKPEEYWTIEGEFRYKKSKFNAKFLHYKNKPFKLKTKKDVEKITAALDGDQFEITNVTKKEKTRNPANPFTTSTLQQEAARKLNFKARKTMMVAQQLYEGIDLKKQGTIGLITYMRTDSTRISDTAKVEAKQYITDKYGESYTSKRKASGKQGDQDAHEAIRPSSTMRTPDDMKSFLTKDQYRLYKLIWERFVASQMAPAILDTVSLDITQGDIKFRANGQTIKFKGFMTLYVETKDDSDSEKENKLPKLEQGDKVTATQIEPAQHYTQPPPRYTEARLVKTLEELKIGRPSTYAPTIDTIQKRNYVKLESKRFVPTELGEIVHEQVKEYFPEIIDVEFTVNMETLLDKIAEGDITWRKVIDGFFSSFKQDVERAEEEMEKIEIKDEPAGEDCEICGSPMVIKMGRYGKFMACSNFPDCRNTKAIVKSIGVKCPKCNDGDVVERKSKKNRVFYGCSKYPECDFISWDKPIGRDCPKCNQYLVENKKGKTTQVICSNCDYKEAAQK
# T1 sequence (P14294 whole entry): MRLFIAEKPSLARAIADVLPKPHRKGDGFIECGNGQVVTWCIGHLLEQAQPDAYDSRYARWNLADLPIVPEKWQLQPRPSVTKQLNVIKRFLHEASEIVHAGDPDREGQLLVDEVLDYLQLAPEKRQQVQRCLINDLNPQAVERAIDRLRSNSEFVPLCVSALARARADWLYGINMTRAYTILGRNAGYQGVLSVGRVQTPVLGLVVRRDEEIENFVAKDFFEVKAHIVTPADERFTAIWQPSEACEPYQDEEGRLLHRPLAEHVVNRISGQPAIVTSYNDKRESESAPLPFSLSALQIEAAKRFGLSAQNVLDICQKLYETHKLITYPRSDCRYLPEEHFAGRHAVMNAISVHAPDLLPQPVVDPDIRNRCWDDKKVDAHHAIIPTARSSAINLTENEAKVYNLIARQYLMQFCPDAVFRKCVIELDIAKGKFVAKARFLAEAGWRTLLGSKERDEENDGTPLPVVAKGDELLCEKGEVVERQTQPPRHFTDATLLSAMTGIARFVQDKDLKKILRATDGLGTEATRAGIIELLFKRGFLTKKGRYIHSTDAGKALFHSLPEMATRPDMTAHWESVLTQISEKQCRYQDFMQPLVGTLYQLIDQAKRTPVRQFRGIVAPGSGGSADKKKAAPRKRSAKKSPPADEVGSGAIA
Compound,IC50 [1] [µM],IC50 [2] [µM],IC50 [3] [µM],IC50 [4] [µM]
"CCCN1CCN(c2ccc3nc(-c4ccc5nc(-c6ccc(OCC)cc6)[nH]c5c4)[nH]c3c2)CC1 [PPEF, 2′-(4-ethoxyphenyl)-5-(4-propylpiperazin-1-yl)-1H,1′H-2,5′-bibenzo(d)imidazole]",1.58,2.71,9.48,15.5
"CCCCN1CCN(c2ccc3[nH]c(-c4ccc5[nH]c(-c6ccc(OC)c(OC)c6)nc5c4)nc3c2)CC1 [BPVF, 5-(4-butylpiperazin-1-yl)-2′-(3,4-dimethoxyphenyl)-1H,1′H-2,5′ bibenzo[d]imidazole]",1.96,–,–,41.4
